Results published in publication PMC5342726, “Identification of small molecule inhibitors of ERCC1-XPF that inhibit DNA repair and potentiate cisplatin efficacy in cancer cells” (Oncotarget, 2016).
Read-outs that look alike come from different tables or passages of the source.

Target: T1, ERCC1-XPF (Homo sapiens, UniProt P07992+Q92889)
T1 construct: made in house; host or cells: Sf9 insect cells, baculovirus (obtained from Aziz Sancar)
T1 sequence (Q92889 1-916): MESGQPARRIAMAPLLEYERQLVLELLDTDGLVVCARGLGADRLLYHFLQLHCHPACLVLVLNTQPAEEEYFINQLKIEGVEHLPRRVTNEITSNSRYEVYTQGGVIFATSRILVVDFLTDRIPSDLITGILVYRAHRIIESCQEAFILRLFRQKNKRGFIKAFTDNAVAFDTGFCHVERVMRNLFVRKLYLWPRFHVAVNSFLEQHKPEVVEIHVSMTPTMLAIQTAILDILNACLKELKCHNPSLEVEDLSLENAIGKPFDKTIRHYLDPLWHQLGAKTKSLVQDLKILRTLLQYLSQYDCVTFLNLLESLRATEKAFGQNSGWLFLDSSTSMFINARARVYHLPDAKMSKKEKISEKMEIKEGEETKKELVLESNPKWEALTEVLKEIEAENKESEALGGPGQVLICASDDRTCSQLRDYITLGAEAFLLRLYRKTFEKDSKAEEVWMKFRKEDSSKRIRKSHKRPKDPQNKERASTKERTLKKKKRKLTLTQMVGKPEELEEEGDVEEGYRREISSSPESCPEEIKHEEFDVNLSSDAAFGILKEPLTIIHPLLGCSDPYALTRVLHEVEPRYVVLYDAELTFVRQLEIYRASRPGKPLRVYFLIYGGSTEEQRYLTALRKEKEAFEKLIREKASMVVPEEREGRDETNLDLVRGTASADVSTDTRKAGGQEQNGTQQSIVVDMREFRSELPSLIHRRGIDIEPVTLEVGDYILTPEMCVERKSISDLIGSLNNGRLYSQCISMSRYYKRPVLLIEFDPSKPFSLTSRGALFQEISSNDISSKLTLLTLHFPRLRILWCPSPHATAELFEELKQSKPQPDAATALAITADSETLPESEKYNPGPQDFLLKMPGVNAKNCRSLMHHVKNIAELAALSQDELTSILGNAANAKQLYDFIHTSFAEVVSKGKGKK
T1 sequence (P07992 1-297): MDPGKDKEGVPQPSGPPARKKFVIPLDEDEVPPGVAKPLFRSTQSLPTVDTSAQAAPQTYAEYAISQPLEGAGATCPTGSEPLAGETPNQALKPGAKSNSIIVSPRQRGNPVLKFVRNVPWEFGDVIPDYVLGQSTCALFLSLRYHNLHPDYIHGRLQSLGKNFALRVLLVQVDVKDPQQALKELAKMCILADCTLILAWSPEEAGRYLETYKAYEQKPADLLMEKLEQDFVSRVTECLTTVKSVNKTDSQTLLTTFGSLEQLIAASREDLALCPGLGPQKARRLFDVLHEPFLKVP
Assay: HTS fluorescence assay of ERCC1-XPF endonuclease activity
Type: biochemical
Excerpt: To screen for ERCC1-XPF inhibition, an existing in vitro assay was optimized to a 96-well plate format to allow for screening of compound libraries (NCI-DTP diversity set). These compounds and subsequent vialed compounds were from the Drug Synthesis and Chemistry Branch, Developmental Therapeutics Program, Division of Cancer Treatment and Diagnosis at the National Cancer Institute. We used purified ERCC1-XPF (Supplementary Figure S1) and describe the purification procedure in Supplementary Information. The initial cuvette-based assay was optimized for DNA, MgCl2 concentrations as well as the incubation time to be used in the fluorescence assay in a 96 well plate format (Supplementary Figure S2). The assay consists of a 10 nM DNA (Q+Fl substrate annealed, described below) and 7.5 nM ERCC1-XPF protein in buffer containing 50 mM Tris-HCl pH8.0, 2 mM MgCl2, 0.1 mM BSA, and 0.5 mM β-mercaptoethanol. For preliminary screening, 150 μL of DNA was added to each well and the fluorescence signal was measured at 525 nm following excitation at 485 nm. Compounds or controls were then added to individual wells for a total of 80 compounds on each plate and the fluorescent signal was re-measured. We initially ran the screen using 50 μM compound and then repeated using 10 μM compound. 16 controls were used per plate, which consisted of buffer alone, DNA alone, ERCC1-XPF alone, 10 nM fluorescein ssDNA (positive signal), and 10 nM Q-Fl DNA with 7.5 nM ERCC1-XPF (positive signal). 7.5 nM ERCC1-XPF was added to each well containing the compounds and DNA and incubated for 30 minutes at 37°C after which the fluorescent signal was measured again.
The synthetic DNA substrate mimics a native forked ssDNA-dsDNA substrate of ERCC1-XPF (Figure 1A). This forked DNA substrate has a dsDNA region (14 bases) and a region containing two ssDNA flaps (12 bases each). One 26-mer DNA oligonucleotide contains a site-specific fluorescein modification at the indicated position (Fl Oligo: 5' - GCCAGCGCTCGGAT(AminoC6dT)(FLSN) TTTTTTTTTTT). The semi-complementary strand was synthesized containing a DABCYL quencher (Q) molecule at the depicted position (Q Oligo: 5' - TTTTTTTTTTT (AminoC6dT)(Dabcyl) ATCCGAGCGCTGGC; Figure 1A). The fluorescein (*) molecule has an excitation peak centered at 485 nm and an emission peak centered at 525 nm. The quencher (Q) molecule is able to quench the fluorescence signal of the fluorescein when it is in close proximity. The design of the semi-duplex DNA substrate is such that the fluorescein and DABCYL quencher are directly opposite one another at the double-stranded and single-stranded DNA junction (Figure 1A). […] Upon cleavage by ERCC1-XPF, (~4-5 bases from the dsDNA-ssDNA) the fluorescein label on the cleaved DNA is released into solution and results in a significant increase in fluorescence as the quencher is no longer in close proximity. The DNA substrate is also incorporated with a restriction enzyme site (HhaI) within the duplex DNA that results in a cleavage pattern similar to ERCC1-XPF. This serves as a positive control and allows assessment of ERCC1-XPF cleavage product. This DNA substrate is used in the solution based fluorescence screening assay to screen for inhibitors of ERCC1-XPF endonuclease activity. In the 96 well platform, the Z factor was calculated to be ~0.87 indicating a highly robust assay and highly suitable for a HTS. A Molecular Devices Spectramax M5 plate reader was used for fluorescence detection. The DNA substrate was the same for gel-based assays besides the fluorescent/quencher modifications and 5'-labeling using γ-ATP^32. For the secondary screen, the reaction was setup in a tube with 10 nM DNA, 7.5 nM XPF-ERCC1, 20 U/ml of HhaI, or 7.5 nM XPG (Supplementary Figure S3A) in nuclease reaction buffer with compound titration and incubated at 37°C for 30 minutes. The reaction was stopped by chelating the metal in the buffer and read in the Spectramax M5 plate reader.

[1] = IC50s calculated by CompuSyn, SD from 3 plots, read-out: ERCC1-XPF IC50

What does the source list for Oc1cc(O)c2c(c1)OC(c1ccc(O)c(O)c1)C(O)C2c1c(O)cc(O)c2c1OC(c1ccc(O)c(O)c1)C(O)C2 (stereo not drawn) [NSC143099]?
IC50 [1]: 22 ± 3 nM; IC50 (read-out: 50% inhibition of ERCC1-XPF): ~22 nM

How did the IC50 [1] turn out when Cc1ccc(S(=O)(=O)Oc2cc(S(=O)(=O)O)cc3cc(S(=O)(=O)O)cc(N)c23)cc1 [NSC16168] was run?
Its IC50 is 420 ± 112 nM.
